According to patent US7902204B2 (priority 2003, dated 2011):

Tested on: HIV-1 single-round infectious reporter virus
Test: Single-round infectious HIV-1 luciferase reporter virus infection of HeLa CD4 CCR5 cells
Format: cell-based
Conditions: Human immunodeficiency virus 1, HeLa-CD4/CCR5, 72 h, read-out: EC50 Group from Table 1
Protocol: • Virus production—Human embryonic Kidney cell line, 293, propagated in Dulbecco's Modified Eagle Medium (Life Technologies, Gaithersburg, Md.) containing 10% fetal Bovine serum (FBS, Sigma, St. Louis, Mo.). • Virus infection—Human epithelial cell line, HeLa, expressing the HIV-1 receptors CD4 and CCR5 was propagated in Dulbecco's Modified Eagle Medium (Life Technologies, Gaithersburg, Md.) containing 10% fetal Bovine serum (FBS, Sigma, St. Louis, Mo.) and supplemented with 0.2 mg/mL Geneticin (Life Technologies, Gaithersburg, Md.) and 0.4 mg/mL Zeocin (Invitrogen, Carlsbad, Calif.). Virus-Single-round infectious reporter virus was produced by co-transfecting human embryonic Kidney 293 cells with an HIV-1 envelope DNA expression vector and a proviral cDNA containing an envelope deletion mutation and the luciferase reporter gene inserted in place of HIV-1 nef sequences (Chen et al, Ref 41). Transfections were performed using lipofectAMINE PLUS reagent as described by the manufacturer (Life Technologies, Gaithersburg, Md.). Experiment • 1. Compound was added to HeLa CD4 CCR5 cells plated in 96 well plates at a cell density of 1×10^4 cells per well in 100 μl Dulbecco's Modified Eagle Medium containing 10% fetal Bovine serum at a concentration of <20 μM. • 2. 100 μl of single-round infectious reporter virus in Dulbecco's Modified Eagle Medium was then added to the plated cells and compound at an approximate multiplicity of infection (MOI) of 0.01, resulting in a final volume of 200 μl per well and a final compound concentration of <10 μM. • 3. Samples were harvested 72 h after infection. • 4. Viral infection was monitored by measuring luciferase expression from viral DNA in the infected cells using a luciferase reporter gene assay kit (Roche Molecular Biochemicals, Indianapolis, Ind.). Infected cell supernatants were removed and 50 μl of Dulbecco's Modified Eagle Medium (without phenol red) and 50 μl of luciferase assay reagent reconstituted as described by the manufacturer (Roche Molecular Biochemicals, Indianapolis, Ind.) was added per well. Luciferase activity was then quantified by measuring luminescence using a Wallac microbeta scintillation counter. • 5. The percent inhibition for each compound was calculated by quantifying the level of luciferase expression in cells infected in the presence of each compound as a percentage of that observed for cells infected in the absence of compound and subtracting such a determined value from 100. • 6. An EC50 provides a method for comparing the antiviral potency of the compounds of this invention. The effective concentration for fifty percent inhibition (EC50) was calculated with the Microsoft Excel Xlfit curve fitting software. For each compound, curves were generated from percent inhibition calculated at 10 different concentrations by using a four paramenter logistic model (model 205). Table 1 is the key for the data in Tables 2-4.

SMILES	EC50 [µM]
O=C(C(=O)N1CCN(c2nccc3ccccc23)CC1)c1c[nH]c2c(Cl)ncnc12 [Example 30, 1-(4-Chloro-5H-pyrrolo[3,2-d]pyrimidin-7-yl)-2-(4-(isoquinolin-1-yl)piperazin-1-yl)ethane-1,2-dione]	< 1
O=C(C(=O)N1CCN(c2nccc3ccccc23)CC1)c1c[nH]c2c(-c3cnccn3)ncnc12 [Example 31, 1-(4-(Isoquinolin-1-yl)piperazin-1-yl)-2-(4-(pyrazin-2-yl)-5H-pyrrolo[3,2-d]pyrimidin-7-yl)ethane-1,2-dione]	< 1
O=C(C(=O)N1CCN(c2nccc3ccccc23)CC1)c1c[nH]c2c(-n3cccn3)ncnc12 [Example 32, 1-(4-(1H-Pyrazol-1-yl)-5H-pyrrolo[3,2-d]pyrimidin-7-yl)-2-(4-(isoquinolin-1-yl)piperazin-1-yl)ethane-1,2-dione]	< 1
N#CC(=C1CCN(C(=O)C(=O)c2c[nH]c3c(Cl)ncnc23)CC1)c1ccccc1 [Example 33, 2-(1-(2-(4-Chloro-5H-pyrrolo[3,2-d]pyrimidin-7-yl)-2-oxoacetyl)piperidin-4-ylidene)-2-phenylacetonitrile]	< 1
N#CC(=C1CCN(C(=O)C(=O)c2c[nH]c3c(-c4cncnc4)ncnc23)CC1)c1ccccc1 [Example 34, 2-(1-(2-Oxo-2-(4-(pyrimidin-5-yl)-5H-pyrrolo[3,2-d]pyrimidin-7-yl)acetyl)piperidin-4-ylidene)-2-phenylacetonitrile]	< 1
O=C(C(=O)N1CCC(=C(c2ccccc2)c2nnco2)CC1)c1c[nH]c2c(Cl)ncnc12 [Example 35]	< 1
O=C(C(=O)N1CCC(=C(c2ccccc2)c2nnco2)CC1)c1c[nH]c2c(-n3cncn3)ncnc12 [Example 36, 1-(4-((1,3,4-Oxadiazol-2-yl)(phenyl)methylene)piperidin-1-yl) -2-(4-(1H-1,2,4-triazol-1-yl)-5H-pyrrolo[3,2-d]pyrimidin-7-yl)ethane-1,2-dione]	< 1
O=C(C(=O)N1CCC(=C(c2ccccc2)c2nnco2)CC1)c1c[nH]c2c(-n3cccn3)ncnc12 [Example 37, 1-(4-((1,3,4-Oxadiazol-2-yl)(phenyl)methylene)piperidin-1-yl) -2-(4-(1H-pyrazol-1-yl)-5H-pyrrolo[3,2-d]pyrimidin-7-yl)ethane-1,2-dione]	< 1
N#CC(=C1CCN(C(=O)C(=O)c2c[nH]c3c(-n4cccn4)ncnc23)CC1)c1ccccn1 [Example 38, 2-(1-(2-(4-(1H-pyrazol-1-yl)-5H-pyrrolo[3,2-d]pyrimidin-7-yl)-2-oxoacetyl)piperidin-4-ylidene)-2-(pyridin-2-yl)acetonitrile]	< 1
O=C(C(=O)N1CCN(C(=O)c2ccccc2)CC1)c1c[nH]c2c(-n3ccc(-c4ccccn4)n3)ncnc12 [Example 39, 1-(4-Benzoylpiperazin-1-yl)-2-(4-(3-(pyridin-2-yl) -1H-pyrazol-1-yl)-5H-pyrrolo[3,2-d]pyrimidin-7-yl)ethane-1,2-dione]	< 1
O=C(C(=O)N1CCN(c2ncnc3ccccc23)CC1)c1c[nH]c2c(-n3cccn3)ncnc12 [Example 40, 1-(4-(1H-Pyrazol-1-yl)-5H-pyrrolo[3,2-d]pyrimidin-7-yl)-2-(4-(quinazolin-4-yl)piperazin-1-yl)ethane-1,2-dione]	< 1
O=C(C(=O)N1CCN(C(=O)c2ccccc2)CC1)c1c[nH]c2c(N3CCN(C(=O)c4cc[nH]n4)CC3)ncnc12 [Example 41, 1-(4-(4-(1H-Pyrazole-3-carbonyl)piperazin-1-yl)-5H -pyrrolo[3,2-d]pyrimidin-7-yl)-2-(4-benzoylpiperazin-1-yl)ethane-1,2-dione]	< 1
N#CC(=C1CCN(C(=O)C(=O)c2c[nH]c3c(-n4cccn4)ncnc23)CC1)c1ccccc1 [Example 42, 2-(1-(2-(4-(1H-Pyrazol-1-yl)-5H-pyrrolo[3,2-d]pyrimidin-7-yl)-2-oxoacetyl)piperidin-4-ylidene)-2-phenylacetonitrile]	< 1
N#CC(=C1CCN(C(=O)C(=O)c2c[nH]c3c(-c4cc[nH]n4)ncnc23)CC1)c1ccccc1 [Example 43, 2-(1-(2-(4-(1H-pyrazol-3-yl)-5H-pyrrolo[3,2-d]pyrimidin-7-yl)-2-oxoacetyl)piperidin-4-ylidene)-2-phenylacetonitrile]	< 1
